28 molecules from ChEMBL document CHEMBL3132764, “-Aminophosphonates as novel anti-leishmanial chemotypes: synthesis, biological evaluation, and CoMFA studies” (Medchemcomm, 2014) can be followed below.

One series relates to Leishmania donovani. The series is described as follows: Antileishmanial activity against promastigote stage of wild type Leishmania donovani MHOM/80/IN/Dd8 after 48 hrs by MTT assay. Format: functional, organism-based. To be noted: MHOM/80/IN/Dd8, 48 h.
Series [1] in a line: Selectivity index, ratio of CC50 for mouse J774A1 cells to IC50 for promastigote stage of wild type Leishmania donovani MHOM/80/IN/Dd8. The class given is functional, J774.A1.
Series [2] in a line: Cytotoxicity against mouse J774A1 cells after 48 hrs by MTT assay. Format: cell-based, J774.A1. On the technique in general: Formazan colour is commonly taken as a measure of viable cells.
Series [3] can be described thus: Half life in human. Format: ADME, organism-based. To be noted: in vivo.

SMILES strings stand for the structures.

Usually CC50 stands for the concentration that lowers cell viability or growth by half. The low end stands for harm at low concentration, the high end for better tolerance by the cells. Regarding `COP(=O)(OC)C1(Nc2ccccc2)CCCCC1`, the values for the IC50 in the series with Leishmania donovani (read-out: IC50) and in the series on Leishmania donovani (read-out: pIC50 (converted)) were 16.4 µM and 16.2 µM, respectively. Moreover, the “Ratio CC50/IC50” value in series [1] is given as 0.46. In series [2], the CC50 at 48 h turned out to be 7.5 µM.

For the molecule `COP(=O)(OC)C(Nc1ccccc1)c1ccccc1` (racemic), the IC50 in the series on Leishmania donovani (read-out: IC50) and with Leishmania donovani (read-out: pIC50 (converted)) was 13.5 µM in each case. For the same molecule, the “Ratio CC50/IC50” value in series [1] turned out to be 0.93. This molecule returned a CC50 at 48 h in series [2] of 12.5 µM.

As for `COP(=O)(OC)C(Nc1ccccc1)C1CCCCC1` (racemic), the IC50 in the series with Leishmania donovani (read-out: IC50) is more than 100 µM. This molecule had a CC50 at 48 h in series [2] of 14 µM.

Turning to `COP(=O)(OC)C(Nc1ccccc1)c1ccc(N(C)C)cc1` (racemic), the IC50 with Leishmania donovani (read-out: IC50) is more than 100 µM. In series [2], this molecule displayed a CC50 at 48 h of 5 µM.

Consider `COP(=O)(OC)C(Nc1ccccc1)c1cccc(O)c1` (racemic), for which the IC50 in the series with Leishmania donovani (read-out: IC50) is more than 100 µM. The molecule also returned a CC50 at 48 h in series [2] of more than 100 µM.

Take `COc1ccc(C(Nc2cc(C)on2)P(=O)(OC)OC)cc1` (racemic): the IC50 in the series on Leishmania donovani (read-out: IC50) was 8 µM; in the series with Leishmania donovani (read-out: pIC50 (converted)), 7.94 µM. Besides, the “Ratio CC50/IC50” value in series [1] worked out at 0.94. Also, half-maximal cytotoxicity in series [2] (CC50 at 48 h) was put at 7.5 µM.

`COc1ccc(C(Nc2nc3c(C)cccc3s2)P(=O)(OC)OC)cc1` (racemic): the IC50 in the series on Leishmania donovani (read-out: IC50) was 8.75 µM; in the series on Leishmania donovani (read-out: pIC50 (converted)) it was 8.71 µM. Moreover, the “Ratio CC50/IC50” value in series [1] is reported as 0.97. For the same molecule, half-maximal cytotoxicity in series [2] (CC50 at 48 h) was put at 8.5 µM.

With `COP(=O)(OC)C(Nc1ccccc1)c1ccc([N+](=O)[O-])cc1` (racemic), the results for the IC50 in the series on Leishmania donovani (read-out: IC50) and in the series on Leishmania donovani (read-out: pIC50 (converted)) were 8.95 µM and 8.91 µM, respectively. Also, the “Ratio CC50/IC50” value in series [1] is recorded as 0.56. In series [2], it took 5 µM to reach half-maximal cytotoxicity (CC50 at 48 h).

For the molecule `COP(=O)(OC)C(Nc1ccccc1)c1ccccc1O` (racemic), the figures for the IC50 with Leishmania donovani (read-out: IC50) and in the series on Leishmania donovani (read-out: pIC50 (converted)) were 8.95 µM and 8.91 µM, respectively. The “Ratio CC50/IC50” value in series [1] was found to be 0.56. Half-maximal cytotoxicity in series [2] (CC50 at 48 h) was put at 5 µM.

Take `COc1ccc(C(Nc2ccccc2)P(=O)(OC)OC)cc1O` (racemic): the IC50 in the series with Leishmania donovani (read-out: IC50) was 9.75 µM; with Leishmania donovani (read-out: pIC50 (converted)) it was 9.77 µM. Also, the “Ratio CC50/IC50” value in series [1] was 3.18. In series [2], half-maximal cytotoxicity (CC50 at 48 h) was put at 31 µM.

With `COP(=O)(OC)C(C)(Nc1ccccc1)c1ccccc1` (racemic), the IC50 in the series with Leishmania donovani (read-out: IC50) and in the series with Leishmania donovani (read-out: pIC50 (converted)) was 13.5 µM throughout. Also, the “Ratio CC50/IC50” value in series [1] stood at 0.44. In addition, in series [2], the CC50 at 48 h was 6 µM.

Take `COc1cc(C(Nc2ccccc2)P(=O)(OC)OC)cc(OC)c1O` (racemic): the IC50 in the series on Leishmania donovani (read-out: IC50) and in the series on Leishmania donovani (read-out: pIC50 (converted)) was 13.5 µM in each case. Moreover, the “Ratio CC50/IC50” value in series [1] turned out to be 0.74. The half-maximal cytotoxic concentration (CC50) at 48 h in series [2] stood at 10 µM.

On to `COP(=O)(OC)C(/C=C/c1ccccc1)Nc1ccccc1` (racemic), for which the IC50 with Leishmania donovani (read-out: IC50) was 17.5 µM; in the series with Leishmania donovani (read-out: pIC50 (converted)) it was 17.4 µM. Further, in series [1], the “Ratio CC50/IC50” value was found to be 0.46. For the same molecule, the midpoint of cytotoxicity in series [2], the CC50 at 48 h, lay at 8 µM.

As to `COc1ccccc1C(Nc1ccccc1)P(=O)(OC)OC` (racemic), the IC50 is 18 µM in the series on Leishmania donovani (read-out: IC50) and 18.2 µM in the series on Leishmania donovani (read-out: pIC50 (converted)). In series [1], the “Ratio CC50/IC50” value was 0.33. In series [2], this molecule registered a CC50 at 48 h of 6 µM.

In the case of `COc1ccc(C(Nc2nc3c(Cl)cccc3s2)P(=O)(OC)OC)cc1` (racemic), the IC50 with Leishmania donovani (read-out: IC50) was 22 µM; with Leishmania donovani (read-out: pIC50 (converted)), 21.9 µM.

As to `COP(=O)(OC)C(Nc1ccccc1)c1ccccc1Br` (racemic), the IC50 was 22.5 µM in the series with Leishmania donovani (read-out: IC50) and 22.4 µM in the series on Leishmania donovani (read-out: pIC50 (converted)). The “Ratio CC50/IC50” value in series [1] is 0.24. In series [2], this molecule showed a CC50 at 48 h of 5.5 µM.

On to `COP(=O)(OC)C(Nc1ccccc1)c1ccccc1F` (racemic), for which the IC50 in the series with Leishmania donovani (read-out: IC50) and in the series with Leishmania donovani (read-out: pIC50 (converted)) was 24 µM in each case. Moreover, the “Ratio CC50/IC50” value in series [1] is recorded as 0.5. Besides, the CC50 at 48 h in series [2] is 12 µM.

Consider `COc1ccc(C(Nc2ccccc2)P(=O)(OC)OC)cc1` (racemic), for which the IC50 is 25 µM in the series on Leishmania donovani (read-out: IC50) and 25.1 µM with Leishmania donovani (read-out: pIC50 (converted)). The “Ratio CC50/IC50” value in series [1] was determined as 0.22. In addition, in series [2], the CC50 at 48 h was 5.5 µM.

In the case of `COP(=O)(OC)C(Nc1cc(C)on1)c1ccccc1` (racemic), the IC50 with Leishmania donovani (read-out: IC50) is 30 µM; with Leishmania donovani (read-out: pIC50 (converted)) it was 30.2 µM.

On to `COP(=O)(OC)C(Nc1ccccc1)c1ccc(Cl)cc1` (racemic), for which the values for the IC50 in the series on Leishmania donovani (read-out: IC50) and in the series on Leishmania donovani (read-out: pIC50 (converted)) were 36 µM and 36.3 µM, respectively. In series [1], the “Ratio CC50/IC50” value came to 1.08. In series [2], half-maximal cytotoxicity (CC50 at 48 h) was put at 39 µM.

On to `COP(=O)(OC)C(Nc1ccccc1)c1ccc(Br)cc1` (racemic), for which the IC50 in the series on Leishmania donovani (read-out: IC50) is 39 µM; in the series on Leishmania donovani (read-out: pIC50 (converted)) it was 38.9 µM. Further, the “Ratio CC50/IC50” value in series [1] was 0.17. The molecule further yielded a CC50 at 48 h in series [2] of 6.5 µM.

As for `COP(=O)(OC)C(Nc1ccccc1)c1cccc2ccccc12` (racemic), the IC50 is 56 µM in the series on Leishmania donovani (read-out: IC50) and 56.2 µM with Leishmania donovani (read-out: pIC50 (converted)). The molecule further displayed a cytotoxic concentration (CC50) at 48 h in series [2] of more than 100 µM.

As to `COP(=O)(OC)C(Nc1ccccc1)c1ccccn1` (racemic), the IC50 with Leishmania donovani (read-out: IC50) is 90 µM; in the series on Leishmania donovani (read-out: pIC50 (converted)), 89.1 µM. For the same molecule, the “Ratio CC50/IC50” value in series [1] came to 0.06. This molecule also showed a CC50 at 48 h in series [2] of 5 µM.

As for `COP(=O)(OC)C(Nc1ccccc1)c1ccc2ccccc2c1` (racemic), the IC50 with Leishmania donovani (read-out: IC50) was 91.5 µM; with Leishmania donovani (read-out: pIC50 (converted)), 91.2 µM. In series [1], the “Ratio CC50/IC50” value is given as 0.07. The CC50 at 48 h in series [2] worked out at 6.1 µM.

For `COc1cc(C(Nc2ccccc2)P(=O)(OC)OC)ccc1O` (racemic), the IC50 was 7.1 µM in the series with Leishmania donovani (read-out: IC50) and 7.08 µM in the series with Leishmania donovani (read-out: pIC50 (converted)). Further, the “Ratio CC50/IC50” value in series [1] is 0.7. In series [2], this molecule came in with a CC50 at 48 h of 5 µM.

Consider `COP(=O)(OC)C(Nc1ccccc1)c1ccc(O)cc1` (racemic), for which the IC50 in the series on Leishmania donovani (read-out: IC50) was 8 µM; in the series with Leishmania donovani (read-out: pIC50 (converted)) it was 7.94 µM. Also, the “Ratio CC50/IC50” value in series [1] is listed as 0.81. In addition, the CC50 at 48 h in series [2] came out at 6.5 µM.

Regarding `C[C@@H]1[C@H](O)[C@@H](C)/C=C/C=C/C=C/C=C/C=C/C=C/C=C/[C@H](O[C@@H]2O[C@H](C)[C@@H](O)[C@H](N)[C@@H]2O)C[C@@H]2O[C@](O)(C[C@@H](O)C[C@@H](O)[C@H](O)CC[C@@H](O)C[C@@H](O)CC(=O)O[C@H]1C)C[C@H](O)[C@H]2C(=O)O` [AMPHOTERICIN B], the IC50 with Leishmania donovani (read-out: IC50) came to 0.405 µM. In addition, the “Ratio CC50/IC50” value in series [1] worked out at 17.28. The same molecule came in with a CC50 at 48 h in series [2] of 7 µM.

The half-life is the time in which the quantity being followed falls by half. Higher therefore signals slow decline. In turn, `CCCCCCCCCCCCCCCCOP(=O)([O-])OCC[N+](C)(C)C` [MILTEFOSINE] had a half-life in series [3] of 6 days.
